US20090208747A1, “Novel Crystalline Methods and Novel Crystalline and Amorphous forms of Halogenated Sugars” (V.B. MEDICARE PVT. LTD, priority 2006, published 2009)

Assays:
[1] = Analysis against JECFA specifications: solubility; type: physicochemical; details: in ethyl acetate
[2] = Stability testing as per ICH Guideline Q1A(R2), storage stability; type: physicochemical; details: for Appearance: storage condition not given
Source text: Stability testing was done as per ICH Harmonised Tripaertite Guideline Stability Testing of New drug substances and Products Q1A(R2) issued by International Conference on Hamonization of technical requirements for registration of pharmaceuticals for human use and recommended for adoption at Step 4 of the ICH Process on 6 Feb.
Details are given on table nos 1 to 4 given in the following: […]

[3] = Accelerated stability test, sealed containers incubated at 50° C.; type: physicochemical; details: sealed container
Procedure: For extrapolating potential storage stability beyond one year, an accelerated storage stability test was conducted. In this test, crystalline TGS of small and large mean particle size was incubated at 50° C. in sealed containers. Percent assay and pH were tested after each 24 hours for five successive days. […] A three days' stability in accelerated stability test is extrapolated by Catani et al (2005) to 8 years of storage stability at ambient temperature.
All the three samples were taken in sealed containers and were incubated at 50° C. […]

Particle size analysis = details: for particle size distribution at 90%: 90% of particles below this size
Procedure: The TGS crystals obtained were tested for purity and particle size.
The solids obtained were tested for purity, particle size and X ray diffraction for the nature of solid obtained.

[4] = Fourth day, listed as Amorphous TGS

**Q.** Which Solubility [1] does the source give for OC[C@H]1O[C@H](O[C@]2(CCl)O[C@H](CCl)[C@@H](O)[C@@H]2O)[C@H](O)[C@@H](O)[C@H]1Cl [Amorphous TGS small particle size, 1′-6′-Dichloro-1′-6′-DIDEOXY-β-Fructofuranasyl-4-chloro-4-deoxy-galactopyranoside] here?
**A.** water. Slightly

**Q.** What about the Assay ([2]; 25° C. ± 2° C. 60% RH ± 5% RH, 1st month) of the same compound?
**A.** 99.34%

**Q.** And the Assay ([2]; 25° C. ± 2° C. 60% RH ± 5% RH, 2nd month)?
**A.** 99.36%

**Q.** And the Assay ([2]; 25° C. ± 2° C. 60% RH ± 5% RH, 3rd month)?
**A.** 99.32%

**Q.** And the Assay ([2]; 25° C. ± 2° C. 60% RH ± 5% RH, 4th month)?
**A.** 99.36%

**Q.** What about the Assay ([2]; 25° C. ± 2° C. 60% RH ± 5% RH, 5th month) of the same compound?
**A.** 99.28%

**Q.** And the Assay ([2]; 25° C. ± 2° C. 60% RH ± 5% RH, 6th month)?
**A.** 99.23%

**Q.** And the Assay ([2]; 25° C. ± 2° C. 60% RH ± 5% RH, 12th month)?
**A.** 99.22%

**Q.** And the Assay ([2]; 25° C. ± 2° C. 60% RH ± 5% RH, 24th month)?
**A.** 99.14%

**Q.** What about the Assay ([2]; 30° C. ± 2° C. 65% RH ± 5% RH, 1st month) of the same compound?
**A.** 99.84%

**Q.** And the Assay ([2]; 30° C. ± 2° C. 65% RH ± 5% RH, 2nd month)?
**A.** 99.84%

**Q.** And the Assay ([2]; 30° C. ± 2° C. 65% RH ± 5% RH, 3rd month)?
**A.** 99.62%

**Q.** And the Assay ([2]; 30° C. ± 2° C. 65% RH ± 5% RH, 4th month)?
**A.** 99.65%

**Q.** What about the Assay ([2]; 30° C. ± 2° C. 65% RH ± 5% RH, 5th month) of the same compound?
**A.** 99.58%

**Q.** What about the Assay ([2]; 30° C. ± 2° C. 65% RH ± 5% RH, 6th month) of the same compound?
**A.** 99.53%

**Q.** What about the Assay ([2]; 30° C. ± 2° C. 65% RH ± 5% RH, 12th month) of the same compound?
**A.** 99.62%

**Q.** What about the Assay ([2]; 30° C. ± 2° C. 65% RH ± 5% RH, 24th month) of the same compound?
**A.** 99.32%

**Q.** And the Assay ([2]; 40° C. ± 2° C. 75% RH ± 5% RH, 1st month)?
**A.** 99.68%

**Q.** And the Assay ([2]; 40° C. ± 2° C. 75% RH ± 5% RH, 2nd month)?
**A.** 99.65%

**Q.** What about the Assay ([2]; 40° C. ± 2° C. 75% RH ± 5% RH, 3rd month) of the same compound?
**A.** 99.67%

**Q.** What about the Assay ([2]; 40° C. ± 2° C. 75% RH ± 5% RH, 4th month) of the same compound?
**A.** 99.58%

**Q.** What about the Assay ([2]; 40° C. ± 2° C. 75% RH ± 5% RH, 5th month) of the same compound?
**A.** 99.52%

**Q.** And the Assay ([2]; 40° C. ± 2° C. 75% RH ± 5% RH, 6th month)?
**A.** 99.46%

**Q.** What about the Assay ([2]; 40° C. ± 2° C. 75% RH ± 5% RH, 12th month) of the same compound?
**A.** 99.52%

**Q.** And the Assay ([2]; 40° C. ± 2° C. 75% RH ± 5% RH, 24th month)?
**A.** 99.12%

**Q.** And the Assay ([2]; INITIAL (printed in the 40° C. ± 2° C. 75% RH ± 5% RH column))?
**A.** 99.70%

**Q.** And the stability in storage ([2]; storage)?
**A.** stable for at least one year in storage

**Q.** And the Appearance ([2]; 1st month)?
**A.** Normal

**Q.** And the Appearance ([2]; 2nd month)?
**A.** Normal

**Q.** And the Appearance ([2]; 3rd month)?
**A.** Normal

**Q.** And the Appearance ([2]; 4th month)?
**A.** Normal

**Q.** What about the Appearance ([2]; 5th month) of the same compound?
**A.** Normal

**Q.** And the Appearance ([2]; 6th month)?
**A.** Normal

**Q.** What about the Appearance ([2]; 12th month) of the same compound?
**A.** Normal

**Q.** What about the Appearance ([2]; 24th month) of the same compound?
**A.** Normal

**Q.** What about the Appearance ([2]; INITIAL) of the same compound?
**A.** Normal

**Q.** And the “stability compared to the crystalline form” value ([2]; table 4)?
**A.** much more stable

**Q.** What about the PH ([3]; Fifth day) of the same compound?
**A.** 7.06

**Q.** What about the “Assay (%)” value ([3]; Fifth day, listed as Amorphous TGS) of the same compound?
**A.** 98.19%

**Q.** And the PH ([3]; First day)?
**A.** 7.03

**Q.** And the “Assay (%)” value ([3]; First day, listed as Amorphous TGS)?
**A.** 98.21%

**Q.** And the “Assay (%)” value [3, 4]?
**A.** 98.18%

**Q.** What about the PH [3, 4] of the same compound?
**A.** 7.02

**Q.** And the PH ([3]; Second day)?
**A.** 7.03

**Q.** What about the “Assay (%)” value ([3]; Second day, listed as Amorphous TGS) of the same compound?
**A.** 98.20%

**Q.** And the PH ([3]; Sixth day)?
**A.** 7.05

**Q.** And the “Assay (%)” value ([3]; Sixth day, listed as Amorphous TGS)?
**A.** 98.17%

**Q.** What about the “Assay (%)” value ([3]; Third day, listed as Amorphous TGS) of the same compound?
**A.** 98.24%

**Q.** What about the “decline in percent assay” value ([3]; in first three days, listed as Amorphous form) of the same compound?
**A.** 0.08%

**Q.** And the “decline in percent assay” value ([3]; in first three days, listed as amorphous form)?
**A.** 0.08%

**Q.** And the “decline in pH” value ([3]; over three days)?
**A.** 0.08 units

**Q.** And the “particle size distribution at 90%” value (Particle size analysis; listed as Example 3)?
**A.** below 6 microns

**Q.** And the “particle size distribution at 90%” value (Particle size analysis; listed as amorphous product)?
**A.** less than 6 microns

**Q.** What about the largest particle size (Particle size analysis; listed as amorphous form) of the same compound?
**A.** ≤ 14 microns

**Q.** Which results are given for OC[C@H]1O[C@H](O[C@]2(CCl)O[C@H](CCl)[C@@H](O)[C@@H]2O)[C@H](O)[C@@H](O)[C@H]1Cl [1′-6′-Dichloro-1′-6′-DIDEOXY-β-Fructofuranasyl-4-chloro-4-deoxy-galactopyranoside]?
**A.** Assay (%) ([3]; Fifth day): 96.86%; PH ([3]; Fifth day): 7.00; Assay (%) ([3]; First day): 98.73%; PH ([3]; First day): 7.08; Assay (%) ([3]; Fourth day): 97.06%; PH ([3]; Fourth day): 7.00; Assay (%) ([3]; Second day): 98.21%; PH ([3]; Second day): 7.08; Assay (%) ([3]; Sixth day): 96.72%; PH ([3]; Sixth day): 7.02; Assay (%) ([3]; Third day): 97.53%; PH ([3]; Third day): 7.02; decline in percent assay ([3]; by fifth day): 1.87%; decline in percent assay ([3]; by sixth day): 2.01%; decline in percent assay ([3]; in first three days, listed as large particle size crystalline TGS): 1.2%; difference in pH ([3]; over the test period): not substantial; particle size distribution at 90% (Particle size analysis; listed as Example 5): below 240 microns; mean particle size (Particle size analysis; listed as Crystalline TGS (big particle size)): about 35 micron

**Q.** With OC[C@H]1O[C@H](O[C@]2(CCl)O[C@H](CCl)[C@@H](O)[C@@H]2O)[C@H](O)[C@@H](O)[C@H]1Cl [Example 4, 1′-6′-Dichloro-1′-6′-DIDEOXY-β-Fructofuranasyl-4-chloro-4-deoxy-galactopyranoside] as the compound, how does the “particle size distribution at 90%” value (Particle size analysis) read?
**A.** < 95 microns

**Q.** With OC[C@H]1O[C@H](O[C@]2(CCl)O[C@H](CCl)[C@@H](O)[C@@H]2O)[C@H](O)[C@@H](O)[C@H]1Cl [Example 6, 1′-6′-Dichloro-1′-6′-DIDEOXY-β-Fructofuranasyl-4-chloro-4-deoxy-galactopyranoside] as the compound, how does the “particle size distribution at 90%” value (Particle size analysis) read?
**A.** below 12 microns
